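Tested at 5 concentrations; 48 h exposure; 96-well plates; endpoints linearly interpolated, else capped at highest concentration. GI50 = concentration required for 50% inhibition of growth.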 Activity calls are given as the source filed them. Rule as the data show it: active = GI50 up to about 1.1 µM and inactive = higher.
Key:
Test in all cases: NCI tumour cell line growth inhibition, 48 h
[1] = system: BT-549
[2] = system: DU-145
[3] = system: HCT-15
[4] = system: Hs-578T
[5] = system: KM12
[6] = system: M14
[7] = system: MOLT-4
[8] = system: NCI-H226
[9] = system: OVCAR-3
[10] = system: OVCAR-4
[11] = system: PC-3
[12] = system: RPMI-8226
[13] = system: SK-MEL-28
[14] = system: SK-MEL-2
[15] = system: SN12C
[16] = system: SNB-19
[17] = system: SR
[18] = system: SW-620
[19] = system: TK-10
[20] = system: UO-31

| Compound | GI50 [1] | GI50 [2] | GI50 [3] | GI50 [4] | GI50 [5] | GI50 [6] | GI50 [7] | GI50 [8] | GI50 [9] | GI50 [10] | GI50 [11] | GI50 [12] | GI50 [13] | GI50 [14] | GI50 [15] | GI50 [16] | GI50 [17] | GI50 [18] | GI50 [19] | GI50 [20] |
| --- | --- | --- | --- | --- | --- | --- | --- | --- | --- | --- | --- | --- | --- | --- | --- | --- | --- | --- | --- | --- |
| O=C1c2nc3n(c2C(=O)c2c1nc1n2CCC1)CCC3 | > 10 µM (inactive) | > 10 µM (inactive) | 5.79 µM | > 10 µM (inactive) | 4.41 µM (inactive) | 1.76 µM (inactive) | 5.46 µM (inactive) | 6.97 µM (inactive) | 2.71 µM (inactive) | 4.71 µM (inactive) | > 10 µM (inactive) | 15.1 µM (inactive) | 13.3 µM (inactive) | 3.66 µM (inactive) | 3.64 µM (inactive) | 14.7 µM (inactive) | 3.01 µM (inactive) | 5.13 µM (inactive) | 27.6 µM (inactive) | 18.8 µM (inactive) |
| Cc1ccc2c(c1)-c1c(C#N)c(N)nc(-c3ccc(Cl)cc3)c1CCS2(=O)=O | 13.6 µM (inactive) | 17.2 µM (inactive) | 4.6 µM | 6.15 µM (inactive) | 3.48 µM (inactive) | 5.21 µM (inactive) | 4.99 µM (inactive) | 28.6 µM (inactive) | 3.94 µM (inactive) | > 83 µM (inactive) | 5.48 µM (inactive) | 3.66 µM (inactive) | 20.6 µM (inactive) | 8.67 µM (inactive) | 10.9 µM (inactive) | 13.2 µM (inactive) | 1.87 µM (inactive) | 5.81 µM (inactive) | 43.6 µM (inactive) | 5.74 µM (inactive) |
| Clc1ccc(-c2nc3cc(C45CC6CC(CC(C6)C4)C5)ccc3[nH]2)cc1 | 56.6 µM (inactive) | 54 µM (inactive) | 9.46 µM | 62.7 µM (inactive) | 13.1 µM (inactive) | 17 µM (inactive) | 0.551 µM (active) | > 65 µM (inactive) | 21.7 µM (inactive) | 60.5 µM (inactive) | 14.3 µM (inactive) | 4.21 µM (inactive) | 75 µM (inactive) | > 100 µM (inactive) | 50.5 µM (inactive) | 44.4 µM (inactive) | 5.64 µM (inactive) | 19.3 µM (inactive) | 40.2 µM (inactive) | 15.3 µM (inactive) |
| CCCCCCSc1nc(COC(=O)NC)c(COC(=O)NC)n1C | > 100 µM (inactive) | > 100 µM (inactive) | > 100 µM | > 100 µM (inactive) | > 100 µM (inactive) | > 100 µM (inactive) | > 100 µM (inactive) | > 100 µM (inactive) | > 100 µM (inactive) | > 100 µM (inactive) | > 100 µM (inactive) | > 100 µM (inactive) | > 100 µM (inactive) | > 100 µM (inactive) | > 100 µM (inactive) | > 100 µM (inactive) | > 100 µM (inactive) | > 100 µM (inactive) | > 100 µM (inactive) | > 100 µM (inactive) |
| O=C(N[C@H]1CCC[C@H]1C(=O)Nc1ccc(C(F)(F)F)cc1)OCc1ccccc1 | > 100 µM (inactive) | > 100 µM (inactive) | > 100 µM | 88.5 µM (inactive) | > 100 µM (inactive) | > 100 µM (inactive) | > 100 µM (inactive) | 65.3 µM (inactive) | > 100 µM (inactive) | > 100 µM (inactive) | > 100 µM (inactive) | > 100 µM (inactive) | > 100 µM (inactive) | > 100 µM (inactive) | > 100 µM (inactive) | > 100 µM (inactive) | > 100 µM (inactive) | > 100 µM (inactive) | > 100 µM (inactive) | > 100 µM (inactive) |
| CC(C)OC(=O)c1ccc(NCc2cc(O)ccc2O)cc1Cl | 0.327 µM (active) | 9.08 µM (inactive) | 0.798 µM | 23.7 µM (inactive) | 3.64 µM (inactive) | 7.13 µM (inactive) | 0.695 µM (active) | 8.22 µM (inactive) | 2.56 µM (inactive) | 4.89 µM (inactive) | 2.57 µM (inactive) | 0.202 µM (active) | 4.28 µM (inactive) | 15.1 µM (inactive) | 4 µM (inactive) | 2.64 µM (inactive) | 0.695 µM (active) | 2.72 µM (inactive) | 6.98 µM (inactive) | 0.993 µM (active) |
| CC1(C)CC2C(/C1=N/O)C1(C)CCCC2(C)C1O (stereo not given) | > 100 µM (inactive) | > 100 µM (inactive) | > 100 µM | > 100 µM (inactive) | > 100 µM (inactive) | > 100 µM (inactive) | > 100 µM (inactive) | > 100 µM (inactive) | > 100 µM (inactive) | > 100 µM (inactive) | > 100 µM (inactive) | > 100 µM (inactive) | > 100 µM (inactive) | > 100 µM (inactive) | > 100 µM (inactive) | > 100 µM (inactive) | > 100 µM (inactive) | > 100 µM (inactive) | > 100 µM (inactive) | > 100 µM (inactive) |

Reference: ChEMBL document CHEMBL1201862, “PubChem BioAssay data set” (2004)
